Results: patent publication US11220516B2, “Nitric oxide-releasing antibiotics, methods of making, and methods of use” (University of Georgia Research Foundation, Inc., priority 2019, dated 2022)
Where two headings read alike, the source gives them in different places.

Assays:
[1] = test system: 48 h old preformed S. aureus biofilms; test: Biofilm dispersal assay on CarboSil polymer films; type: cell-based, Staphylococcus aureus (ATCC 6538); conditions: for reduction in planktonic bacteria in solution: bacteria shed from 48 h S. aureus biofilm; for inhibition at 500 µM: Staphylococcus aureus, read-out: reduction of viable bacteria adhered on the films (biofilm)
Protocol: Biofilms were grown for 48 h on circular CarboSil polymer films fabricated with a surface area of 1 cm^2. Solutions of S. aureus were prepared by placing one colony of bacteria in Luria Broth and incubated at 37° C. until the solution reached approximately 10^6 to 10^8 CFU mL^−1. Each polymer film was suspended in 2 mL of the bacteria solution and the solution was replenished with a fresh bacteria solution at 24 h of incubation. For the duration of the study the samples were incubated on a shaker at 150 rpms. After 48 h, the films were removed from the bacteria solutions and each film was gently rinsed with 5 ml of sterile PBS to remove any planktonic bacteria. The films were next incubated with 1 mL their specified test solutions and each solution type was tested at n=4. Each test solution was prepared with sterilized PBS and calculated to contain either 500 μM of ampicillin, SNAP, or SNAPicillin. After 24 h, the polymer films were removed from the test solutions, gently rinsed with PBS to remove planktonic bacteria, and homogenized in sterile PBS to remove any viable bacteria from the biofilm. The collected bacteria were serially diluted, plated on LB agar, and incubated for 18 h to achieve countable CFUs for comparison. A similar procedure was then done for the planktonic bacteria suspended in the solution of the incubated films to observe viable bacteria that shed from the potentially dispersed biofilms.
While NO release from SNAP may have difficulties diffusing through agar for disk diffusion testing, it is extremely potent at dispersing biofilms. […] The polymer films were then immersed into solutions containing either ampicillin, SNAP, or SNAPicillin at a concentration of 500 μM and the adhered bacteria remaining on the film as well as the planktonic bacteria within the solutions were observed (FIGS. 7 and 8).

S. aureus = test: Zone of inhibition assay (agar diffusion) of blended CarboSil films; type: cell-based, Staphylococcus aureus (ATCC 6538); conditions: 8 mm diameter; for ZOI values against S. aureus: overnight at 37° C.
Protocol: Zone of inhibition (ZOI) testing was done on polymer films containing the same composition of either ampicillin, SNAP, or SNAPicillin used in the leachate and NOA studies. A standard agar diffusion protocol was followed and tested against S. aureus. A single colony of bacterium was suspended into LB and incubated at 37° C. for 14 h while being rotated at 150 rpm. The optical density of each bacterial culture was then measured at 600 nm using a UV-Vis spectrophotometer. The observed optical density was adjusted to 1×10^7 colony forming units per mL using a standard calibration curve of each corresponding bacteria. A sterile cotton swab was then used to dip into each culture media and spread onto premade LB-agar petri dishes. The polymer films of either ampicillin, SNAP, SNAPicillin, along with controls (diameter: 8 mm, thickness: 200 μm) were then placed on top of the petri dishes and allowed to incubate overnight at 37° C. The ZOI was then measured and compared the following day to observe the antimicrobial effects of synthesized SNAPicillin molecule within a hydrophobic matrix.
A significant advantage of using targeted antibiotics over NO releasing polymers is seen in its ability to prevent bacteria growth. […] To ensure the SNAP attachment to ampicillin was not interfering with this targeted potency, a zone of inhibition (ZOI) test against S. aureus was done. […] This trend has been seen in the past with NO releasing hydrophobic polymers, where the ZOI is extremely limited beyond the interface of the polymer itself.^32
The characterization of covalent attachment of SNAP was verified through FTIR (Fourier Transform Infrared Spectroscopy) and NMR (Nuclear Magnetic Resonance Spectroscopy) and its NO releasing characteristics were compared to pure, unmodified SNAP. The combination of both NO and ampicillin in one unique compound allows for the dispersal of biofilms while making them more susceptible to the antibiotic moiety. […]

[2] = SNAP leachate from blended CarboSil films in PBS (UV-vis absorbance at 340 nm); type: physicochemical; conditions: equimolar blend in CarboSil films, PBS at 37° C., end of 4 day study
Protocol: Leaching of SNAPicillin and SNAP was done by first blending equimolar amounts of the corresponding chemical (33.33 μmol mL^−1) into solutions of CarboSil dissolved in THF (50 mg mL^−1) and subsequently cast into Teflon molds to dry overnight. The dried films were then weighed and measured before being submerged into PBS. Quantification of SNAP leaching into solution was done by measuring absorbance at 340 nm via UV-vis analysis.
(§1) One issue holding back using the direct administration of NO donors as an effective therapeutic is its short half-life. To address this, a common method for controlling and directing the NO release of a donor in a localized and targeted area is to encapsulate it within a polymer. This strategy is also used for antibiotics and antiseptics as well, as catheters have been fabricated with physically blended drugs to combat and prevent infection.^28-30 One key advantage for modifying the ampicillin with SNAP was its change in solubility. A large majority of antibiotics are not soluble in organic solvents, limiting its ability to evenly disperse within polymer matrices when coated or impregnated within the bulk material. […] The polymer films were measured and weighed before being immersed in PBS at 37° C. and were periodically taken out to examine either SNAP or ampicillin leachates (FIGS. 3A-3B). […]

[3] = NO release from blended CarboSil polymer films over 7 days and NO donor remaining (UV-VIS); type: physicochemical; conditions: for NO donor remaining within the CarboSil polymer films: 168 h
Protocol: (§2) Real time NO release was measured using a Sievers 280i NOA (Nitric Oxide Analyzer). Polymer films containing SNAPicillin or SNAP were immersed in amber reaction vessels containing PBS (pH 7.4) with 100 μM EDTA to chelate any metal ion contaminants within the buffer. Solutions were continuously purged with a nitrogen sweep gas and bubbler to carry the NO from the solution directly to the NOA. In a separate NO releasing study, solutions containing 500 μM of either SNAPicillin or SNAP in PBS with EDTA were also tested under physiological conditions to obtain the stabilized NO release profile to compare passive release kinetics.
A separate NO release study was also done by physically blending equimolar amounts into solutions of CarboSil, and solvent casting a thin polymer film to be analyzed. Since polymer films blended with SNAP are a common strategy to create a surface with controlled, localized NO release, a comparison of NO release was done using SNAPicillin containing polymer films to examine its potential as an alternative novel NO donor. The fabricated films were placed in PBS (pH 7.4) containing 0.01 mM EDTA at 37° C. to observe the real time NO releasing kinetics. […] This is contrary to the pure solutions that were previously placed under physiological conditions, where SNAP was able to have a higher initial release. The difference is most likely is due to the leaching rate of either SNAP or SNAPicillin from a hydrophobic polymer matrix.
The amount of NO donor remaining in the films was also quantified using UV-VIS after this time period to examine the potential release beyond the recorded 7 days. […] As mentioned previously, due to the larger molecular weight of SNAPicillin, it was able to stay within the CarboSil matrix for a longer period of time when compared to SNAP blended films. This further emphasizes the versatility of the SNAPicillin donor as a possible RSNO donor substitute for NO releasing polymers that require sustained or controlled release kinetics with the additional antimicrobial functionality.

[4] = NO release kinetics of 500 μM solutions (Sievers 280i Nitric Oxide Analyzer); type: physicochemical; conditions: 500 μM in PBS (pH 7.4) with EDTA, 37° C., 4 h
Protocol: as §2
The NO release of the synthesized SNAPicillin was compared to pure SNAP by dissolving equimolar (500 μM) amounts of each into separate solutions of PBS (pH 7.4) containing 0.01 mM EDTA and placing them in an amber reaction vial submerged within a water bath at 37° C. while NO release was monitored in real time. Nitrogen gas was used to continuously purge the solution to examine the stabilized, passive release under these conditions. […] Although equimolar amounts of each component were used, the RSNO component on the SNAPicillin appears to be less reactive when compared to pure crystalline SNAP under physiological conditions.

biofilms = conditions: as low as; cited from earlier work
[5] = Ampicillin leachate from blended CarboSil films in PBS with EDTA (alkaline potassium permanganate oxidation); type: physicochemical; conditions: equimolar blend in CarboSil films, PBS at 37° C., 4 days
From the text: Ampicillin eachate from CarboSil films was done by making polymer solutions with equimolar amounts of SNAPicillin and ampicillin. Ampicillin was first dissolve in a small amount of methanol before being added to CarboSil in THF solutions and then solvent casted into Teflon molds. Films were then weighed and immersed in PBS containing EDTA. Quantification of ampicillin leaching into solution was done via the oxidation reaction with alkaline potassium permanganate following a previously established protocol.^24
as §1, with “solubility.” for “solubility. A large majority of antibiotics are not soluble in organic solvents, limiting its ability to evenly disperse within polymer matrices when coated or impregnated within the bulk material.”

[6] = 500 μM solution in PBS, 24 h treatment
[7] = 500 μM solution in PBS, 24 h treatment, 48 h S. aureus biofilm

Structure (SMILES)	reduction in planktonic bacteria in solution [1, 6] [%]	cumulative leaching from films, SNAP leaching study [2] [μmol cm-2]	ZOI values against S. aureus (S. aureus) [mm]	cumulative leaching from films, ampicillin study [5] [μmol cm^−2]	also measured
CC(=O)N[C@H](C(=O)O)C(C)(C)SN=O (racemic) [SNAP, S-nitroso-N-acetylpenicillamine]	96.2±1.15	1.307±0.536			inhibition at 500 µM [1]: 99.2 ± 0.762%; zone of inhibition against S. aureus, in words (S. aureus): only killing bacteria directly in contact with the film; NO donor remaining within the CarboSil polymer films ([3]; pH 7.4): 0.25±0.17%; stabilized passive NO release rate of solutions [4]: slightly higher rate of NO release than SNAPicillin solutions
[N]=O [NO, nitric oxide]					concentration of NO able to trigger the biofilm dispersal mechanism (biofilms): 450 pM
CC(=O)NC(C(=O)NC(C(=O)NC1C(=O)N2C1SC(C)(C)C2C(=O)O)c1ccccc1)C(C)(C)SN=O (stereo not drawn) [SNAPicillin]	99.5±0.264	0.051±0.10	34.0±1.40	0.043±0.003	reduction of viable bacteria adhered on the films (biofilm) [1, 7]: 99.9±0.18%; NO donor remaining within the CarboSil polymer films [3]: 21.9±1.72%; NO flux from blended films ([3]; equimolar blend in CarboSil films, PBS (pH 7.4) with EDTA, 37° C., 7 days): higher NO fluxes at every time point when compared to SNAP
CC1(C)S[C@@H]2[C@H](NC(=O)[C@H](N)c3ccccc3)C(=O)N2[C@H]1C(=O)O [ampicillin]	90.0±1.13		34.5±1.50	0.087±0.003	inhibition at 500 µM [1, 7]: 28.9 ± 5.89%
